This assay deals with T1, ACC1 from rat liver (Rattus norvegicus, UniProt P11497).
T1 construct: The livers (for ACC1 preparation) or skeletal muscle tissue (for ACC2 preparation) are removed; from tissue; host or cells: liver of male CD rats (fasted, then fed a high sucrose diet)
The assay can be described thus: Direct inhibition of ACC1 activity (14C-bicarbonate incorporation). The format is biochemical. How it is done: [1] Preparation of ACC1 and ACC2.
Male CD rats weighing 150-200 g are fasted for 2 days and then fed a high sucrose diet (AIN-76A rodent diet; Cat # D10001, Research Diets Inc., New Brunswick, N.J.), for 3 days at which time they are sacrificed by CO2 asphyxiation. The livers (for ACC1 preparation) or skeletal muscle tissue (for ACC2 preparation) are removed, rinsed in ice-cold phosphate-buffered saline (PBS), and homogenized in 5 volumes of homogenization buffer (50 mM potassium phosphate, pH 7.5, 10 mM EDTA, 10 mM 2-mercaptoethanol, 2 mM benzamidine, 0.2 mM phenylmethylsulfonylfluoride (PMSF), 5 mg/L each leupeptin, aprotinin, and antitrypsin) in a Waring® blender for 1 minute at 4° C. All subsequent operations are carried out at 4° C. The homogenate is made 3% with respect to polyethylene glycol (PEG) by the addition of 50% PEG solution and centrifuged at 20,000×g for 15 minutes. The resulting supernatant is adjusted to 5% PEG with the addition of 50% PEG solution and stirred for 5 minutes. The pellet (contains ACC activity) is collected by centrifugation at 20,000×g for 20 minutes, rinsed with Ice-cold doubly distilled water to remove excess PEG and re-suspended in one-fourth the original homogenate volume with homogenization buffer. Ammonium sulfate (200 g/liter) is slowly added with stirring. After 45 minutes the enzyme is collected by centrifugation for 30 minutes at 20,000×g, re-suspended in 10 ml of 50 mM HEPES, pH7.5, 0.1 mM DTT, 1.0 mM EDTA, and 10% glycerol and desalted on a Sephadex™ G-25 column (2.5 cm-x 50 cm) (Pharmacia, Piscataway N.J. now GE Healthcare) […] equilibrated with the same buffer. The desalted enzyme preparation is stored in aliquots at −70° C. Immediately prior to use, frozen ACC1 or ACC2 aliquots are thawed, diluted to 500 μg/ml in buffer containing 50 mM HEPES, pH7.5, 1.0 mM MgCl2, 10 mM tripotassium citrate, 2.0 mM dithiothreitol (DTT), and 0.75 mg/ml fatty acid-free bovine serum albumin (BSA) and pre-incubated at 37° C. for 30 minutes.
[2] Measurement of ACC inhibition. The procedures for measuring ACC1 inhibition and ACC2 inhibition are identical except for the source of the isozyme. For measurement of ACC activity and assessment of ACC inhibition, test compounds are dissolved in dimethylsulfoxide (DMSO) and 1 μL aliquots are placed in 0.5 ml polypropylene tubes. Control tubes contain 1 μL of DMSO alone. Tubes are incubated at 37° C. in a constant temperature water bath. […] The reaction is then initiated by the addition of 10 μL of preincubated ACC fraction prepared as described above. After 7 minutes the reaction is terminated by the addition of 50 μL of 6N HCl and a 150 μL aliquot of the reaction mixture is transferred to glass scintillation vials and evaporated to dryness at 90° C. for at least 1 hour. The dried vials are then cooled, 0.5 ml of water and 5.5 ml of Ready Safe liquid scintillation fluid (Beckman Coulter Inc., Fullerton, Calif.) are added, and the radioactivity is determined using a liquid scintillation counter. Tubes that received HCl before ACC served as blanks.

pIC50: −log10 of the molar value. Structures can show the parent of a compound that is named as a salt.

In the case of `COc1cc2c(cc1OC)C(=O)CC1(CCN(C(=O)c3cccc(-c4cc[nH]n4)c3)CC1)O2` [Ex. M31, 6,7-Dimethoxy-1′-[3-(1H-pyrazol-3-yl)benzoyl]spiro[chromene-2,4′-piperidin]-4(3H)-one], for the setting “Table of Examples M1-M36”, the pIC50 is 6.16.

In turn, `Cc1cc(C(=O)N2CCC3(CC2)CC(=O)c2cc(Cl)ccc2O3)cc2cn[nH]c12` [Ex. A26, 6-chloro-1′-[(7-methyl-1H-indazol-5-yl)carbonyl]spiro[chromene-2,4′-piperidin]-4(3H)-one] had a pIC50 (ACC1 from rat liver) of 6.95.

Under “ACC1 from rat liver”, `Cc1cc(C(=O)N2CCC3(CC2)CC(=O)c2ccc(Cl)cc2O3)cc2cn[nH]c12` [Ex. A17, 7-chloro-1′-[(7-methyl-1H-indazol-5-yl)carbonyl]spiro[chromene-2,4′-piperidin]-4(3H)-one] showed a pIC50 of 7.15.

With `Cc1cc2c(cc1C)C(=O)CC1(CCN(C(=O)c3ccc4ncccc4c3)CC1)O2` [Ex. L43, 6,7-dimethyl-1′-(quinolin-6-ylcarbonyl)spiro[chromene-2,4′-piperidin]-4(3H)-one trifluoroacetic acid salt], the pIC50 (ACC1 from rat liver) is 6.92.

Consider `Cc1nc2c(C(=O)N3CCC4(CC3)CC(=O)c3cc(C)c(C)cc3O4)cccc2[nH]1` [Ex. L19, 6,7-dimethyl-1′-[(2-methyl-1H-benzimidazol-4-yl)carbonyl]spiro[chromene-2,4′-piperidin]-4(3H)-one trifluoroacetic acid salt], for which the pIC50 (ACC1 from rat liver) was above 5.52.

`Cc1nc(-c2cccc(C(=O)N3CCC4(CC3)CC(=O)c3cc(C)c(C)cc3O4)c2)no1` [Ex. P14, 6,7-Dimethyl-1′-[3-(5-methyl-1,2,4-oxadiazol-3-yl)benzoyl]spiro[chromene-2,4′-piperidin]-4(3H)-one] gave a pIC50 (Table of Examples P1-P15) above 5.52.

For `Cc1cc2c(cc1C)C(=O)CC1(CCN(C(=O)c3cccc4cc[nH]c34)CC1)O2` [Ex. L1, 1′-(1H-indol-7-ylcarbonyl)-6,7-dimethylspiro[chromene-2,4′-piperidin]-4(3H)-one trifluoroacetic acid salt], the negative logarithm of the IC50 (pIC50) (ACC1 from rat liver) was 6.72.

In turn, `COc1ccc2c(c1)C(=O)CC1(CCN(C(=O)c3cccc(-c4cc[nH]n4)c3)CC1)O2` [Ex. M6, 6-methoxy-1′-[3-(1H-pyrazol-3-yl)benzoyl]spiro[chromene-2,4′-piperidin]-4(3H)-one] had a pIC50 (Table of Examples M1-M36) of 6.89.

The compound `Cc1cc2c(cc1Br)C(=O)CC1(CCN(C(=O)c3cccc4cn[nH]c34)CC1)O2` [Ex. H3, 6-bromo-1′-(1H-indazol-7-ylcarbonyl)-7-methylspiro[chromene-2,4′-piperidin]-4(3H)-one] gave a pIC50 (ACC1 from rat liver) of 6.58.

Where the note is “ACC1 from rat liver”, `Cc1cc2c(cc1C)C(=O)CC1(CCN(C(=O)c3cccc4c3ncn4C(C)C)CC1)O2` [Ex. L21, 1′-[(1-isopropyl-1H-benzimidazol-4-yl)carbonyl]-6,7-dimethylspiro[chromene-2,4′-piperidin]-4(3H)-one trifluoroacetic acid salt] showed a pIC50 of 6.17.

`CCc1nn(C)c2cc(C(=O)N3CCC4(CC3)CC(=O)c3cc(C)c(C)cc3O4)ccc12` [Ex. G4, 1′-[(3-ethyl-1-methyl-1H-indazol-6-yl)carbonyl]-6,7-dimethylspiro[chromene-2,4′-piperidin]-4(3H)-one]: the pIC50 (ACC1 from rat liver) is 7.10.

Consider `Cc1cc2c(c(C)c1Cl)C(=O)CC1(CCN(C(=O)c3cccc4cn[nH]c34)CC1)O2` [Ex. H8, 6-chloro-1′-(1H-indazol-7-ylcarbonyl)-5,7-dimethylspiro[chromene-2,4′-piperidin]-4(3H)-one], for which the negative-log IC50 (pIC50) (ACC1 from rat liver) was 6.23.

Compound `O=C1CC2(CCN(C(=O)c3cccc4cn[nH]c34)CC2)Oc2c(Cl)cc(Cl)cc21` [Ex. H22, 6,8-dichloro-1′-(1H-indazol-7-ylcarbonyl)spiro[chromene-2,4′-piperidin]-4(3H)-one] had a pIC50 (ACC1 from rat liver) of 5.58.

With `Cc1cc2c(cc1Cl)C(=O)CC1(CCN(C(=O)c3cccc(-c4cc(C(F)(F)F)[nH]n4)c3)CC1)O2` [Ex. P2, 6-chloro-7-methyl-1′-{3-[5-(trifluoromethyl)-1H-pyrazol-3-yl]benzoyl}spiro[chromene-2,4′-piperidin]-4(3H)-one trifluoroacetic acid salt], where the note is “Table of Examples P1-P15”, the pIC50 was 6.37.

Regarding `COc1ccc2c(c1)OC1(CCN(C(=O)c3cccc(-c4cc[nH]n4)c3)CC1)CC2=O` [Ex. M25, 7-methoxy-1′-[3-(1H-pyrazol-3-yl)benzoyl]spiro[chromene-2,4′-piperidin]-4(3H)-one], where the note is “Table of Examples M1-M36”, the pIC50 was 6.32.

As for `CN(C)C(=O)c1ccc2c(c1)C(=O)CC1(CCN(C(=O)c3cccc(-c4cc[nH]n4)c3)CC1)O2` [Ex. M29, N,N-dimethyl-4-oxo-1′-[3-(1H-pyrazol-3-yl)benzoyl]-3,4-dihydrospiro[chromene-2,4′-piperidine]-6-carboxamide], the pIC50 (Table of Examples M1-M36) was 6.24.

For `O=C1CC2(CCN(C(=O)c3cccc(-c4cc[nH]n4)c3)CC2)Oc2cc(Cl)cc(Cl)c21` [Ex. M16, 5,7-dichloro-1′-[3-(1H-pyrazol-3-yl)benzoyl]spiro[chromene-2,4′-piperidin]-4(3H)-one], where the note is “Table of Examples M1-M36”, the pIC50 was 6.50.

Take `COc1cc(Cl)c2c(c1)OC1(CCN(C(=O)c3cc(C)c4[nH]ncc4c3)CC1)CC2=O` [Ex. A6, 5-chloro-7-methoxy-1′-[(7-methyl-1H-indazol-5-yl)carbonyl]spiro[chromene-2,4′-piperidin]-4(3H)-one]: the pIC50 (ACC1 from rat liver) was 7.50.

`Cc1cc2c(cc1C)C(=O)CC1(CCN(C(=O)c3ccc4nn(C)cc4c3)CC1)O2` [Ex. J3, 6,7-dimethyl-1′-[(2-methyl-2H-indazolyl)carbonyl]spiro[chromene-2,4-piperidin]-4(3H)-one] gave a pIC50 (ACC1 from rat liver) of 6.45.

For the compound `Cc1cc(C(=O)N2CCC3(CC2)CC(=O)c2cc(C(C)C)ccc2O3)cc2cn[nH]c12` [Ex. A23, 6-isopropyl-1′-[(7-methyl-1H-indazol-5-yl)carbonyl]spiro[chromene-2,4′-piperidin]-4(3H)-one], the pIC50 (ACC1 from rat liver) is 6.96.

`Cc1ccc2c(c1)OC1(CCN(C(=O)c3cccc4cn[nH]c34)CC1)CC2=O` [Ex. H12, 1′-(1H-indazol-7-ylcarbonyl)-7-methylspiro[chromene-2,4-piperidin]4(3H)-one] gave a pIC50 (ACC1 from rat liver) of 6.07.

Consider `Cc1cc2c(cc1C)C(=O)CC1(CCN(C(=O)c3cc(Cl)c4[nH]ncc4c3)CC1)O2` [Ex. B1, 1′-[(7-chloro-1H-indazol-5-yl)carbonyl]-6,7-dimethylspiro[chromene-2,4′-piperidin]-4(3H)-one], for which, for the setting “ACC1 from rat liver”, the pIC50 is 7.62.

On to `O=C1CC2(CCN(C(=O)c3cccc(-c4cc[nH]n4)c3)CC2)Oc2ccc(C(=O)N3CCCC3)cc21` [Ex. M9, 1′-[3-(1H-pyrazol-3-yl)benzoyl]-6-(pyrrolidin-1-ylcarbonyl)spiro[chromene-2,4′-piperidin]-4(3H)-one], for which the negative logarithm of the IC50 (pIC50) (Table of Examples M1-M36) was 6.75.

Regarding `COc1cccc2c1C(=O)CC1(CCN(C(=O)c3ccc4nc(-c5ccccc5)[nH]c4c3)CC1)O2` [Ex. L35, 5-methoxy-1′-[(2-phenyl-1H-benzimidazol-6-yl)-carbonyl]spiro[chromene-2,4′-piperidin]-4(3H)-one], the pIC50 (ACC1 from rat liver) is 7.81.

The compound `O=C1CC2(CCN(C(=O)c3cccc(-c4cc[nH]n4)c3)CC2)Oc2ccc(Cl)cc21` [Ex. M30, 6-Chloro-1′-[3-(1H-pyrazol-3-yl)benzoyl]spiro[chromene-2,4′-piperidin]-4(3H)-one] gave a pIC50 (Table of Examples M1-M36) of 6.21.

For the setting “ACC1 from rat liver”, `Cc1cc2c(c(C)c1Cl)C(=O)CC1(CCN(C(=O)c3cc(C)c4[nH]ncc4c3)CC1)O2` [Ex. A18, 6-chloro-5,7-dimethyl-1′-[(7-methyl-1H-indazol-5-yl)carbonyl]spiro[chromene-2,4′-piperidin]-4(3H)-one] gave a pIC50 of 7.14.

On to `CCc1nc2cc(C(=O)N3CCC4(CC3)CC(=O)c3ccccc3O4)ccc2n1-c1cccc(OC)c1` [Ex. L30, 1′-{[2-ethyl-1-(3-methoxyphenyl)-1H-benzimidazol-5-yl]carbonyl}spiro[chromene-2,4′-piperidin]-4(3H)-one], for which, under “ACC1 from rat liver”, the pIC50 is 6.41.

For the origin of these results see patent US20090270435A1 (priority 2006, published 2009).
